Measurements: ChEMBL document CHEMBL4334442, “Effects of Acetylshikonin on the Infection and Replication of Coxsackievirus A16 in Vitro and in Vivo” (J Nat Prod, 2019)
Calls of active or inactive are those of the source.

How the values were obtained:
[1] = test system: Coxsackievirus A16; test: Antiviral activity against Coxsackievirus A16 TA271 infected in ICR mouse assessed as reduction in lesions in spinal muscle at 2 mg/kg, im after 5 days post infection by H and E staining based histopathological analysis; type: functional, organism-based
[2] = Toxicity in ICR mouse infected with Coxsackievirus A16 TA271 assessed as increase in body weight at 0.08 uM/L preincubated with viral suspension for 2 hrs followed by intramuscular administration and measured every day; details: in vivo, im
[3] = test system: Coxsackievirus A16; test: Antiviral activity against Coxsackievirus A16 TA271 infected in RD cells at preinfection stage assessed as cell detachment at 0.08 uM/L preincubated with cells for 3 hrs followed by viral infection and measured after 1 hr by inverted microscopic analysis; type: functional, cell-based
[4] = test system: Coxsackievirus A16; test: Antiviral activity against Coxsackievirus A16 TA271 infected in RD cells assessed as effect on viral load at release stage at 0.08 uM/L preincubated with cells for 1 hr followed by replacement of fresh medium containing compounds for 16 hrs and measured after 48 hrs post infection by RT-PCR analysis; type: functional, cell-based
[5] = test system: Coxsackievirus A16; test: Antiviral activity against Coxsackievirus A16 TA271 infected in RD cells at release stage assessed as increase in intracytoplasmic granules at 0.08 uM/L preincubated with cells for 1 hr followed by replacement of fresh medium containing compounds after 5 hrs post infection and further incubated for 16 hrs post infection by inverted microscopic analysis; type: functional, cell-based
[6] = test system: Coxsackievirus A16; test: Antiviral activity against Coxsackievirus A16 TA271 infected in ICR mouse assessed as reduction in inflammatory cell infiltration in spinal muscle at 2 mg/kg, im after 5 days post infection by H and E staining based histopathological analysis; type: functional, organism-based
[7] = test system: Coxsackievirus A16; test: Antiviral activity against Coxsackievirus A16 TA271 infected in RD cells assessed as inhibition of viral adsorption/entry by measuring reduction in viral load at 0.08 uM/L incubated for 1 hr and measured after 48 hrs post infection by RT-PCR analysis; type: functional, cell-based
[8] = test system: Coxsackievirus A16; test: Antiviral activity against Coxsackievirus A16 TA271 infected in RD cells assessed as log reduction in viral genome copies at 0.08 uM/L preincubated with viral suspension for 2 hrs followed by cell addition and measured at 24 hrs post infection by RT-PCR analysis; type: functional
[9] = test system: Coxsackievirus A16; test: Antiviral activity against Coxsackievirus A16 TA271 infected in ICR mouse assessed as reduction in viral load in heart at 2 mg/kg, im after 3 to 5 days post infection by RT-PCR analysis; type: functional, organism-based
[10] = test system: Coxsackievirus A16; test: Antiviral activity against Coxsackievirus A16 TA271 infected in ICR mouse assessed as reduction in viral load in hind limb muscle at 0.08 uM/L preincubated with viral suspension for 2 hrs followed by intramuscular administration after 3 to 5 days post infection by RT-PCR analysis; type: functional
[11] = test system: Coxsackievirus A16; test: Antiviral activity against Coxsackievirus A16 TA271 infected in ICR mouse assessed as increase in inflammatory cell proliferation in spinal muscles at 0.08 uM/L preincubated with viral suspension for 2 hrs followed by intramuscular administration after 5 days post infection by H and E staining based histopathological analysis; type: functional
[12] = test system: Coxsackievirus A16; test: Antiviral activity against Coxsackievirus A16 TA271 infected in ICR mouse assessed as mild alveolar fibrosis in heart at 2 mg/kg, im after 5 days post infection by H and E staining based histopathological analysis; type: functional, organism-based
[13] = test system: Coxsackievirus A16; test: Antiviral activity against Coxsackievirus A16 LW614 infected in RD cells assessed as reduction in viral genome copies at 0.08 uM/L preincubated with viral suspension for 2 hrs followed by cell addition and measured at 24 hrs post infection by RT-PCR analysis; type: functional, cell-based
[14] = test system: Coxsackievirus A16; test: Antiviral activity against Coxsackievirus A16 TA271 infected in RD cells at preinfection stage assessed as increase in intracytoplasmic granules at 0.08 uM/L preincubated with cells for 3 hrs followed by viral infection and measured after 1 hr by inverted microscopic analysis; type: functional, cell-based
[15] = test system: Coxsackievirus A16; test: Antiviral activity against Coxsackievirus A16 TA271 infected in ICR mouse assessed as mild alveolar fibrosis in lung at 2 mg/kg, im after 5 days post infection by H and E staining based histopathological analysis; type: functional, organism-based
[16] = test system: Coxsackievirus A16; test: Antiviral activity against Coxsackievirus A16 TA271 infected in ICR mouse assessed as effect on virus-induced IL-6 level at 0.08 uM/L preincubated with viral suspension for 2 hrs followed by intramuscular administration after 3 days post infection by ELISA; type: functional
[17] = test system: Coxsackievirus A16; test: Antiviral activity against Coxsackievirus A16 TA271 infected in ICR mouse assessed as mouse survival at 2 mg/kg, im measured on day 6 post infection relative to control; type: functional; details: Enterovirus A, 144 h
[18] = test system: Coxsackievirus A16; test: Antiviral activity against Coxsackievirus A16 TA271 infected in RD cells at preinfection stage assessed as cell fragmentation at 0.08 uM/L preincubated with cells for 3 hrs followed by viral infection and measured after 1 hr by inverted microscopic analysis; type: functional, cell-based
[19] = test system: Coxsackievirus A16; test: Antiviral activity against Coxsackievirus A16 16038 infected in RD cells assessed as reduction in viral genome copies at 0.08 uM/L preincubated with viral suspension for 2 hrs followed by cell addition and measured at 24 hrs post infection by RT-PCR analysis; type: functional, cell-based
[20] = test system: Coxsackievirus A16; test: Antiviral activity against Coxsackievirus A16 TA271 infected in RD cells at replication stage assessed as cell fragmentation at 0.08 uM/L 1 hr post-infection viral inoculum was removed and cells incubated with medium containing compound and measured after 5 hrs by inverted microscopic analysis; type: functional, cell-based
[21] = test system: Coxsackievirus A16; test: Antiviral activity against Coxsackievirus A16 TA271 infected in ICR mouse assessed as reduction in muscle fiber breakage in heart at 2 mg/kg, im after 5 days post infection by H and E staining based histopathological analysis; type: functional, organism-based
[22] = test system: Coxsackievirus A16; test: Antiviral activity against Coxsackievirus A16 TA271 infected in ICR mouse assessed as mild alveolar wall thickening in spinal muscle at 2 mg/kg, im after 5 days post infection by H and E staining based histopathological analysis; type: functional, organism-based
[23] = test system: Coxsackievirus A16; test: Antiviral activity against Coxsackievirus A16 TA271 infected in ICR mouse assessed as reduction in viral load in spinal muscle at 0.08 uM/L preincubated with viral suspension for 2 hrs followed by intramuscular administration after 3 to 5 days post infection by RT-PCR analysis; type: functional
[24] = test system: Coxsackievirus A16; test: Antiviral activity against Coxsackievirus A16 LW2 infected in RD cells assessed as reduction in viral genome copies at 0.08 uM/L preincubated with viral suspension for 2 hrs followed by cell addition and measured at 24 hrs post infection by RT-PCR analysis; type: functional, cell-based
[25] = test system: Coxsackievirus A16; test: Antiviral activity against Coxsackievirus A16 TA271 infected in ICR mouse assessed as reduction in virus-induced IL-6 level at 0.08 uM/L preincubated with viral suspension for 2 hrs followed by intramuscular administration after 3 days post infection by ELISA; type: functional
[26] = test system: Coxsackievirus A16; test: Antiviral activity against Coxsackievirus A16 TA271 infected in ICR mouse assessed as reduction in viral load in hind limb muscle at 2 mg/kg, im after 3 to 5 days post infection by RT-PCR analysis; type: functional, organism-based
[27] = test system: Coxsackievirus A16; test: Antiviral activity against Coxsackievirus A16 TA271 infected in RD cells at release stage assessed as appearance of cell shrinkage at 0.08 uM/L preincubated with cells for 1 hr followed by replacement of fresh medium containing compounds after 5 hrs post infection and further incubated for 16 hrs post infection by inverted microscopic analysis; type: functional, cell-based

CC(=O)OC(CC=C(C)C)C1=CC(=O)c2c(O)ccc(O)c2C1=O (configuration not stated)
>2: LCK [8]
inactive: Activity [3] | Activity [4] | Activity [5] | Activity [14] | Activity [16] | Activity [18] | Activity [20] | Activity [27]
50%: survival at 2 mg/kg [17]
active: Activity [1] | Activity [6] | Activity [7] | Activity [9] | Activity [10] | Activity [11] | Activity [12] | Activity [13] | Activity [15] | Activity [19] | Activity [21] | Activity [22] | Activity [23] | Activity [24] | Activity [25] | Activity [26]
Non-Toxic: Activity [2]
